Test results reported in PubChem BioAssay (NCI).
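Assay format: 96-well plates, 48-hour exposure. TGI: concentration producing complete growth inhibition.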

How the values were obtained:
Experiment in all cases: NCI tumour cell line growth inhibition, 48 h
ACHN renal = system: ACHN renal
LOX IMVI melanoma = system: LOX IMVI melanoma
786-0 renal = system: 786-0 renal
NCI-H460 lung = system: NCI-H460 lung
SF-295 CNS = system: SF-295 CNS
MDA-MB-231 breast = system: MDA-MB-231 breast
SN12C renal = system: SN12C renal
CAKI-1 renal = system: CAKI-1 renal
HCT-116 colon = system: HCT-116 colon
SNB-75 CNS = system: SNB-75 CNS
NCI-H23 lung = system: NCI-H23 lung
KM12 colon = system: KM12 colon
OVCAR-8 ovarian = system: OVCAR-8 ovarian
A498 renal = system: A498 renal
U251 CNS = system: U251 CNS
HCT-15 colon = system: HCT-15 colon
TK-10 renal = system: TK-10 renal
MDA-N = system: MDA-N
UO-31 renal = system: UO-31 renal
MALME-3M melanoma = system: MALME-3M melanoma
IGROV1 ovarian = system: IGROV1 ovarian
PC-3 prostate = system: PC-3 prostate
HL-60(TB) leukemia = system: HL-60(TB) leukemia
HT29 colon = system: HT29 colon
MCF7 breast = system: MCF7 breast
COLO 205 colon = system: COLO 205 colon
NCI-H522 lung = system: NCI-H522 lung
HS 578T breast = system: HS 578T breast
NCI-H226 lung = system: NCI-H226 lung
SW-620 colon = system: SW-620 colon
SNB-19 CNS = system: SNB-19 CNS
M14 melanoma = system: M14 melanoma
MOLT-4 leukemia = system: MOLT-4 leukemia
SK-OV-3 ovarian = system: SK-OV-3 ovarian
K-562 leukemia = system: K-562 leukemia
UACC-257 melanoma = system: UACC-257 melanoma
HOP-92 NSCLC = system: HOP-92 NSCLC
UACC-62 melanoma = system: UACC-62 melanoma
T-47D breast = system: T-47D breast
A549 NSCLC = system: A549 NSCLC
SF-268 CNS = system: SF-268 CNS
OVCAR-4 ovarian = system: OVCAR-4 ovarian
MDA-MB-435 = system: MDA-MB-435
DU-145 prostate = system: DU-145 prostate
SK-MEL-5 melanoma = system: SK-MEL-5 melanoma
NCI/ADR-RES ovarian = system: NCI/ADR-RES ovarian
OVCAR-5 ovarian = system: OVCAR-5 ovarian
SK-MEL-2 melanoma = system: SK-MEL-2 melanoma
SF-539 CNS = system: SF-539 CNS
SK-MEL-28 melanoma = system: SK-MEL-28 melanoma
EKVX NSCLC = system: EKVX NSCLC
BT-549 breast = system: BT-549 breast
HCC-2998 colon = system: HCC-2998 colon
HOP-62 NSCLC = system: HOP-62 NSCLC
SR leukemia = system: SR leukemia
CCRF-CEM leukemia = system: CCRF-CEM leukemia
RPMI-8226 leukemia = system: RPMI-8226 leukemia
OVCAR-3 ovarian = system: OVCAR-3 ovarian

For `C/C=C1\C(=O)OC2CCN3CCC(COC(=O)C(C)(O)C(C)C1O)C23` (stereo not drawn), the TGI (ACHN renal) was over 100 µM, the TGI (LOX IMVI melanoma) was over 100 µM and the TGI (786-0 renal) was over 100 µM. The TGI (NCI-H460 lung) was over 100 µM, the TGI (SF-295 CNS) was over 100 µM and the TGI (MDA-MB-231 breast) was over 100 µM. The TGI (SN12C renal) was over 100 µM, the TGI (CAKI-1 renal) was over 100 µM and the TGI (HCT-116 colon) was over 100 µM. For the same compound, the TGI (SNB-75 CNS) was over 100 µM, the TGI (NCI-H23 lung) was over 100 µM and the TGI (KM12 colon) was over 100 µM. The TGI (OVCAR-8 ovarian) was over 100 µM, the TGI (A498 renal) was over 100 µM and the TGI (U251 CNS) was over 100 µM. It also gave a TGI (HCT-15 colon) of over 100 µM, a TGI (TK-10 renal) of over 100 µM and a TGI (MDA-N) of over 100 µM. The TGI (UO-31 renal) was over 100 µM, the TGI (MALME-3M melanoma) was over 100 µM and the TGI (IGROV1 ovarian) was over 100 µM. It also gave a TGI (PC-3 prostate) of over 100 µM, a TGI (HL-60(TB) leukemia) of over 100 µM and a TGI (HT29 colon) of over 100 µM. It also gave a TGI (MCF7 breast) of over 100 µM, a TGI (COLO 205 colon) of over 100 µM and a TGI (NCI-H522 lung) of over 100 µM. It also gave a TGI (HS 578T breast) of over 100 µM, a TGI (NCI-H226 lung) of over 100 µM and a TGI (SW-620 colon) of over 100 µM. For the same compound, the TGI (SNB-19 CNS) was over 100 µM, the TGI (M14 melanoma) was over 100 µM and the TGI (MOLT-4 leukemia) was over 100 µM. For the same compound, the TGI (SK-OV-3 ovarian) was over 100 µM, the TGI (K-562 leukemia) was over 100 µM and the TGI (UACC-257 melanoma) was over 100 µM. For the same compound, the TGI (HOP-92 NSCLC) was over 100 µM, the TGI (UACC-62 melanoma) was over 100 µM and the TGI (T-47D breast) was over 100 µM. For the same compound, the TGI (A549 NSCLC) was over 100 µM, the TGI (SF-268 CNS) was over 100 µM and the TGI (OVCAR-4 ovarian) was over 100 µM. The TGI (MDA-MB-435) was over 100 µM, the TGI (DU-145 prostate) was over 100 µM and the TGI (SK-MEL-5 melanoma) was over 100 µM. The TGI (NCI/ADR-RES ovarian) was over 100 µM, the TGI (OVCAR-5 ovarian) was over 100 µM and the TGI (SK-MEL-2 melanoma) was over 100 µM. It also gave a TGI (SF-539 CNS) of over 100 µM, a TGI (SK-MEL-28 melanoma) of over 100 µM and a TGI (EKVX NSCLC) of over 100 µM. The TGI (BT-549 breast) was over 100 µM and the TGI (HCC-2998 colon) was over 100 µM.

`NC(=O)CO/N=C1/C(c2c(O)[nH]c3ccccc23)=Nc2ccccc21` showed a TGI (ACHN renal) of over 100 µM, a TGI (HOP-62 NSCLC) of over 100 µM and a TGI (LOX IMVI melanoma) of over 100 µM. It also gave a TGI (SR leukemia) of over 56.9 µM, a TGI (786-0 renal) of over 100 µM and a TGI (NCI-H460 lung) of over 100 µM. The TGI (CCRF-CEM leukemia) was over 100 µM, the TGI (SF-295 CNS) was over 100 µM and the TGI (MDA-MB-231 breast) was over 100 µM. The TGI (SN12C renal) was over 100 µM, the TGI (CAKI-1 renal) was over 100 µM and the TGI (HCT-116 colon) was over 100 µM. For the same compound, the TGI (SNB-75 CNS) was over 100 µM, the TGI (NCI-H23 lung) was over 100 µM and the TGI (KM12 colon) was over 100 µM. The TGI (OVCAR-8 ovarian) was over 100 µM, the TGI (A498 renal) was over 100 µM and the TGI (U251 CNS) was over 100 µM. The TGI (HCT-15 colon) was over 100 µM, the TGI (TK-10 renal) was over 100 µM and the TGI (MDA-N) was over 100 µM. It also gave a TGI (UO-31 renal) of over 100 µM, a TGI (MALME-3M melanoma) of over 100 µM and a TGI (IGROV1 ovarian) of over 100 µM. It also gave a TGI (PC-3 prostate) of over 100 µM, a TGI (HL-60(TB) leukemia) of over 100 µM and a TGI (HT29 colon) of over 100 µM. For the same compound, the TGI (COLO 205 colon) was over 100 µM, the TGI (NCI-H522 lung) was over 100 µM and the TGI (HS 578T breast) was over 100 µM. The TGI (NCI-H226 lung) was over 100 µM, the TGI (SW-620 colon) was over 100 µM and the TGI (SNB-19 CNS) was over 100 µM. It also gave a TGI (M14 melanoma) of over 100 µM, a TGI (MOLT-4 leukemia) of over 100 µM and a TGI (SK-OV-3 ovarian) of over 100 µM. For the same compound, the TGI (K-562 leukemia) was over 100 µM, the TGI (UACC-257 melanoma) was over 100 µM and the TGI (HOP-92 NSCLC) was over 100 µM. The TGI (UACC-62 melanoma) was over 100 µM, the TGI (A549 NSCLC) was over 100 µM and the TGI (SF-268 CNS) was over 100 µM. It also gave a TGI (OVCAR-4 ovarian) of over 100 µM, a TGI (MDA-MB-435) of over 100 µM and a TGI (DU-145 prostate) of over 100 µM. It also gave a TGI (SK-MEL-5 melanoma) of over 100 µM, a TGI (NCI/ADR-RES ovarian) of over 100 µM and a TGI (RPMI-8226 leukemia) of over 100 µM. It also gave a TGI (OVCAR-5 ovarian) of over 100 µM, a TGI (SK-MEL-2 melanoma) of over 100 µM and a TGI (SF-539 CNS) of over 100 µM. For the same compound, the TGI (SK-MEL-28 melanoma) was over 100 µM, the TGI (EKVX NSCLC) was over 100 µM and the TGI (BT-549 breast) was over 100 µM. It also gave a TGI (OVCAR-3 ovarian) of over 100 µM.
